Measurements as given in article PMC10940605, “Design, synthesis and in vitro anticancer activity of some new lomefloxacin derivatives” (Scientific Reports, 2024).

How the values were obtained:
Assay in all cases: NCI-60 SRB screen
Type in all cases: cell-based
786-0 = details: Homo sapiens; 786-0, 10^–5 Molar; read-out: Percent growth inhibition
Procedure, shortened: (§1)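 Compound added at 10^−5 M final, 48 h at 37 °C. Fixed with cold TCA, stained with 0.4% SRB, read at […].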

A498 = details: Homo sapiens; A498, 10^–5 Molar; read-out: Percent growth inhibition
Procedure, shortened: as §1

BT-549 = details: Homo sapiens; BT-549, 10^–5 Molar; read-out: Percent growth inhibition
Procedure, shortened: (§2)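 Single-dose screen at 10^−5 M; cells grown in RPMI 1640 with 2 mM L-glutamine and FBS for 24 h, then exposed to compound for 48 h at 37 °C, 5% CO2. TCA-fixed, SRB-stained, absorbance read at […]; percentage growth inhibition calculated against time-zero and control wells.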

EKVX = details: Homo sapiens, 10^–5 Molar, read-out: Percent growth inhibition
Procedure, shortened: as §2

HS 578T = details: Homo sapiens, 10^–5 Molar, read-out: Percent growth inhibition
Procedure, shortened: as §2

LOX IMVI = details: Homo sapiens, 10^–5 Molar, read-out: Percent growth inhibition
Procedure, shortened: as §1

MDA-MB-468 = details: Homo sapiens; MDA-MB-468, 10^–5 Molar; read-out: Percent growth inhibition
Procedure, shortened: as §2

NCI-H322M = details: Homo sapiens, 10^–5 Molar, read-out: Percent growth inhibition
Procedure, shortened: as §2

NCI-H460 = details: Homo sapiens; NCI-H460, 10^–5 Molar; read-out: Percent growth inhibition
Procedure, shortened: as §2

NCI-H522 = details: Homo sapiens; NCI-H522, 10^–5 Molar; read-out: Percent growth inhibition
Procedure, shortened: as §2

NCI/ADR-RES = details: Homo sapiens, 10^–5 Molar, read-out: Percent growth inhibition
Procedure, shortened: as §1

OVCAR-4 = details: Homo sapiens; OVCAR-4, 10^–5 Molar; read-out: Percent growth inhibition
Procedure, shortened: as §2

OVCAR-5 = details: Homo sapiens; OVCAR-5, 10^–5 Molar; read-out: Percent growth inhibition
Procedure, shortened: as §1

RXF 393 = details: Homo sapiens, 48 h; RXF 393, 10^–5 Molar; read-out: Percent growth inhibition
Procedure, shortened: as §2

SF-268 = details: Homo sapiens; SF-268, 10^–5 Molar; read-out: Percent growth inhibition
Procedure, shortened: as §1

SK-MEL-28 = details: Homo sapiens; SK-MEL-28, 10^–5 Molar; read-out: Percent growth inhibition
Procedure, shortened: as §2

T-47D = details: Homo sapiens, T47D, 10^–5 Molar, read-out: Percent growth inhibition
Procedure, shortened: as §1

U251 = details: Homo sapiens, U-251; U251, 10^–5 Molar; read-out: Percent growth inhibition
Procedure, shortened: as §2

UACC-62 = details: Homo sapiens; UACC-62, 10^–5 Molar; read-out: Percent growth inhibition
Procedure, shortened: as §1

UO-31 = details: Homo sapiens; UO-31, 10^–5 Molar; read-out: Percent growth inhibition
Procedure, shortened: as §2

melanoma SK-MEL-5 = details: Homo sapiens; SK-MEL-5, 10^–5 Molar; read-out: Percent growth inhibition
Procedure, shortened: as §1

SN12C = details: Homo sapiens, 10^–5 Molar, read-out: Percent growth inhibition
Procedure, shortened: as §1

leukemia SR = details: Homo sapiens; SR, 10^–5 Molar; read-out: Percent growth inhibition
Procedure, shortened: as §2

HCT-116 = details: Homo sapiens; HCT-116, 10^–5 Molar; read-out: Percent growth inhibition
Procedure, shortened: as §2

| SMILES | inhibition at 10 µM (786-0) [%] | inhibition at 10 µM (A498) [%] | inhibition at 10 µM (HS 578T) [%] | inhibition at 10 µM (LOX IMVI) [%] | inhibition at 10 µM (MDA-MB-468) [%] | inhibition at 10 µM (NCI-H322M) [%] | inhibition at 10 µM (NCI-H460) [%] | inhibition at 10 µM (NCI-H522) [%] | inhibition at 10 µM (NCI/ADR-RES) [%] | inhibition at 10 µM (OVCAR-4) [%] | inhibition at 10 µM (OVCAR-5) [%] | inhibition at 10 µM (RXF 393) [%] | inhibition at 10 µM (SF-268) [%] | inhibition at 10 µM (SK-MEL-28) [%] | inhibition at 10 µM (T-47D) [%] | inhibition at 10 µM (UACC-62) [%] | inhibition at 10 µM (UO-31) [%] | inhibition at 10 µM (melanoma SK-MEL-5) [%] | inhibition at 10 µM (SN12C) [%] | inhibition at 10 µM (leukemia SR) [%] | also measured |
| --- | --- | --- | --- | --- | --- | --- | --- | --- | --- | --- | --- | --- | --- | --- | --- | --- | --- | --- | --- | --- | --- |
| CCn1cc(C(=O)O)c(=O)c2cc(F)c(N3CCN(C(=O)c4ccccc4)C(C)C3)c(F)c21 (centres unmarked) [Compound 7a, 7-(4-Benzoyl-3-methylpiperazin-1-yl)-1-ethyl-6,8-difluoro-4-oxo-1,4-dihydroquinoline-3-carboxylic acid] | 14.7 | 19.1 | 18.1 | 19.1 | 4.54 | 14.4 | 4.91 | 9.08 | 20.4 | 20.5 | 5.65 | 6.68 | 9.47 | 4.44 | 18.1 | 25 | 28.5 | 6.55 |  |  | inhibition at 10 µM (BT-549): 3.33%; inhibition at 10 µM (EKVX): 1.21%; inhibition at 10 µM (U251): 2.73% |
| CCn1cc(C(=O)O)c(=O)c2cc(F)c(N3CCN(C(=O)c4ccc(Br)cc4)C(C)C3)c(F)c21 (centres unmarked) [Compound 7b, 7-(4-(4-Bromobenzoyl)-3-methylpiperazin-1-yl)-1-ethyl-6,8-difluoro-4-oxo-1,4-dihydroquinoline-3-carboxylic acid] | 0.58 | 13.8 | 4.22 |  | 3.31 | 5.64 | 1.2 | 10 | 9.07 | 16.9 | 2.96 | 6.35 | 6.79 |  | 6.95 | 17.5 | 21.4 | 1.22 | 1.45 | 1.41 |  |
| CCn1cc(C(=O)O)c(=O)c2cc(F)c(N3CCN(C(=O)c4ccc(Cl)cc4)C(C)C3)c(F)c21 (centres unmarked) [Compound 7c, 7-(4-(4-Chlorobenzoyl)-3-methylpiperazin-1-yl)-1-ethyl-6,8-difluoro-4-oxo-1,4-dihydroquinoline-3-carboxylic acid] |  | 19.2 | 5.57 | 4 | 3.92 | 7.81 | 1.66 | 9.51 | 13.8 | 18.9 | 2.81 | 0.35 | 7.02 | 2.92 | 5.3 | 18.9 | 23.9 | 2.21 | 3.15 | 8.55 | inhibition at 10 µM (HCT-116): 0.17% |
| CCn1cc(C(=O)O)c(=O)c2cc(F)c(N3CCN(C(=O)c4ccc([N+](=O)[O-])cc4)C(C)C3)c(F)c21 (centres unmarked) [Compound 7d, 1-Ethyl-6,8-difluoro-7-(3-methyl-4-(4-nitrobenzoyl)piperazin-1-yl)-4-oxo-1,4-dihydroquinoline-3-carboxylic acid] | 0.6 | 8.25 | 8.17 | 9.8 | 2.79 | 12.7 |  | 0.62 | 3.34 | 8.82 | 9.27 |  | 7.01 |  | 4.73 | 10.9 | 27.2 | 0.86 | 0.88 | 44.8 | inhibition at 10 µM (HCT-116): 2.1% |
